Reference: patent publication US5908924A, “Cloning and expression of the gene encoding thermoanaerobacter ethanolicus 39E secondary-alcohol dehydrogenase and enzyme biochemical characterization” (Michigan State University, priority 1997, dated 1999)
Entries after “also recorded” stand apart in the source; their conditions may differ. Read-outs that look alike come from different tables or passages of the source.

Columns and labels:
[1] = target: T1, recombinant T. ethanolicus 2° Adh (Thermoanaerobacter pseudethanolicus, UniProt B0KBL1); test: chemical modification (DTNB, DEPC) and reactivation by DTT with metal salts or EDTA; format: biochemical, Thermoanaerobacter ethanolicus 39E; set-up: homotetramer; activity recovery of DTNB-inactivated enzyme with DTT plus zinc: dose or concentration left out as unconfirmed; conditions: for effect on enzyme reactivation by DTT after DTNB inactivation: metal salts 0.01 mM to 1.0 mM, EDTA 0.5 mM to 3.0 mM
T1 sequence (B0KBL1 2-353): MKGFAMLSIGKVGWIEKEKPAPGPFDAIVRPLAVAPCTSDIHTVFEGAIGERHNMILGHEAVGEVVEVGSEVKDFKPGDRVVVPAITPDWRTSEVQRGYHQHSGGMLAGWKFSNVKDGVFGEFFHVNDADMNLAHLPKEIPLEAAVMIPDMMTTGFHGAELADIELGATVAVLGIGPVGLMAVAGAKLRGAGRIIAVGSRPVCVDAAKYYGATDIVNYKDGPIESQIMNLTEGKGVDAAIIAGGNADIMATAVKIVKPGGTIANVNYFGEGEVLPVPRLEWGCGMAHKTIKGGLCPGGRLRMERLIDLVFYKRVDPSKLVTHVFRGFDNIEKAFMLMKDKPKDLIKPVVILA
Description: Cysteine residues were reversibly modified using dithionitrobenzoate (DTNB) at 25° C. and 60° C.. […] Histidine residues were chemically modified with diethylpyrocarbonate (DEPC) by incubation with 20 mM or 40 mM DEPC in 50 mM phosphate buffer (pH 6.0) at 25° C. for 1.0 h and the reaction was quenched by addition of 0.5×volume of 0.5 M imidazole (pH 6.5).

T. brockii 2° Adh = conditions: sulfhydryl modification by p-chloromercuribenzoate; cited from earlier work
[2] = target: T1, recombinant T. ethanolicus 2° Adh; test: standard 2° Adh activity assay (NADP+ reduction coupled to alcohol oxidation at 60° C.), Kmapp and Vmaxapp; conditions: for Vmaxapp / Km: 60° C.; for Km: read-out: Kmapp
Description: (§2) The enzyme was incubated at 55° C. for 15 min prior to activity determination unless otherwise indicated. Assays to determine Kmapp and Vmaxapp were conducted at 60° C. with substrate concentrations between 20×Kmapp and 0.2×Kmapp. Kinetic parameters were calculated from nonlinear best fits of the data to the Michaelis-Menten equation using Kinzyme software [26].

[3] = cited from earlier work; for time to complete inactivation: at 70° C.
[4] = substrate: NC(=O)c1ccc[n+]([C@@H]2O[C@H](COP(=O)([O-])OP(=O)(O)OC[C@H]3O[C@@H](n4cnc5c(N)ncnc54)[C@H](OP(=O)(O)O)[C@@H]3O)[C@@H](O)[C@H]2O)c1; test: purified protein, by the assay type; conditions: other: 60° C.
Description: as §2

[5] = 2° Adh thermostability: residual activity after timed incubation at the desired temperatures; format: physicochemical
Description: (§1) 2° Adh thermostability was measured as the residual activity after timed incubation at the desired temperatures. Thermal inactivation was stopped by incubation for 30 min at 25° C., and samples were prepared for activity assays by preincubation at 55° C. for 15 min. Incubations were performed in […] (cat. #72.733.050, Sarstedt; Newton, N.C.) using […] protein in […]. Activity was determined using the unfractionated samples. The temperature effect on enzyme activity was studied using the substrates propan-2-ol or ethanol at 10×Kmapp concentrations.

[6] = 2° Adh activity: standard assay and temperature effect on enzyme activity (Arrhenius plots); format: biochemical; conditions: for Arrhenius plot discontinuity temperature: enzyme preincubated at 0° C. or 25° C.
Description: as §1
To study the effect of enzyme preincubation temperature on enzyme reaction rates, the 2° Adh was incubated at 0° C., 25° C., or 55° C. for 15 min prior to activity determinations in the temperature range 30-90° C. Tris-HCl buffer pH values were adjusted at 25° C. to be pH 8.0 at the temperature they were used (thermal correction factor=-0.031 ΔpH °C.^-1). The statistical significance of the differences between the Arrhenius plot slopes above and below the discontinuity temperatures was determined by covariance analysis.

## O[C@H](CS)[C@H](O)CS (racemic) [DTT, dithiothreitol]
[1]; 60° C., DTT, no added metal
  recovery of initial activity of DTNB-inactivated enzyme: 34%

## [Ca+2].[Cl-].[Cl-] [CaCl2]
[1]
  effect on enzyme reactivation by DTT after DTNB inactivation: did not affect enzyme reactivation by DTT

## O=S(=O)([O-])[O-].[Cd+2] [CdSO4]
[1]
  effect on enzyme reactivation by DTT after DTNB inactivation: did not affect enzyme reactivation by DTT

## [Cl-].[Cl-].[Co+2] [CoCl2]
[1]; 60° C.
  recovered activity of DTNB-inactivated enzyme with DTT plus added metal salt, of the initial activity: 10%

## CCOC(=O)OC(=O)OCC [DEPC, diethylpyrocarbonate]
[1]; 20 mM or 40 mM DEPC, pH 6.0, 25° C., 1.0 h
  enzyme inactivation by modification of histidine residues: completely inactivated; also recorded: complete enzyme inactivation

## O=C([O-])CN(CCN(CC(=O)[O-])CC(=O)O)CC(=O)[O-].[Na+].[Na+].[Na+] [EDTA, (ethylenedinitrilo) tetraacetic acid trisodium salt]
[1]; trisodium salt
  effect on enzyme reactivation by DTT after DTNB inactivation: did not affect enzyme reactivation by DTT; also recorded: inability of EDTA to reduce the rate of reactivation

## [Cl][Fe][Cl] [FeCl2]
[1]
  effect on enzyme reactivation by DTT after DTNB inactivation: did not affect enzyme reactivation by DTT

## [Cl-].[Cl-].[Mg+2] [MgCl2]
[1]
  effect on enzyme reactivation by DTT after DTNB inactivation: did not affect enzyme reactivation by DTT

## [Cl][Mn][Cl] [MnCl2]
[1]
  effect on enzyme reactivation by DTT after DTNB inactivation: did not affect enzyme reactivation by DTT

## [Cl-].[Na+] [NaCl]
[1]
  effect on enzyme reactivation by DTT after DTNB inactivation: did not affect enzyme reactivation by DTT

## [Cl][Ni][Cl] [NiCl2]
[1]; 60° C.
  recovered activity of DTNB-inactivated enzyme with DTT plus added metal salt, of the initial activity: 15%

## [Cl-].[Cl-].[Zn+2] [ZnCl2]
[1]; in the presence of ZnCl2
  activity recovery of DTNB-inactivated enzyme with DTT plus zinc: up to 48%
T. brockii 2° Adh
  inactivation and recovery of activity of T. brockii 2° Adh: recovered activity only in the presence of ZnCl2

## CCO [ethanol]
[2]
  Vmaxapp: 10 U mg^-1
  Km: 47000 µM
[2]; higher than for propan-2-ol
  Kmapp toward the 1° alcohol relative to the 2° alcohol: ~43 fold

## O=C(O)c1cc[c]([Hg][Cl])cc1 [p-chloromercuribenzoate]
T. brockii 2° Adh
  inactivation and recovery of activity of T. brockii 2° Adh: inactivated

## CC(C)O [propan-2-ol]
[2]
  Vmaxapp: 47 U mg^-1
  Km: 1100 µM

## NAD(H)
[2]
  NAD(H) dependent activity: no NAD(H) dependent activity was detected

B1: C. beijerinckii 2° Adh: mesophilic NADP(H)-dependent secondary-alcohol dehydrogenase of Clostridium beijerinckii (protein, UniProt P25984 1-351, looked up)
NADP-dependent isopropanol …: MKGFAMLGINKLGWIEKERPVAGSYDAIVRPLAVSPCTSDIHTVFEGALGDRKNMILGHEAVGEVVEVGSEVKDFKPGDRVIVPCTTPDWRSLEVQAGFQQHSNGMLAGWKFSNFKDGVFGEYFHVNDADMNLAILPKDMPLENAVMITDMMTTGFHGAELADIQMGSSVVVIGIGAVGLMGIAGAKLRGAGRIIGVGSRPICVEAAKFYGATDILNYKNGHIVDQVMKLTNGKGVDRVIMAGGGSETLSQAVSMVKPGGIISNINYHGSGDALLIPRVEWGCGMAHKTIKGGLCPGGRLRAEMLRDMVVYNRVDLSKLVTHVYHGFDHIEEALLLMKDKPKDLIKAVVIL
[3]
  time to complete inactivation: ≤ 10 min
[3]; listed as C. beijerinckii
  time to complete inactivation: ≤ 10 min

B2: recombinant T. ethanolicus 2° Adh (Thermoanaerobacter pseudethanolicus ATCC 33223) (protein)
chain: MKGFAMLSIGKVGWIEKEKPAPGPFDAIVRPLAVAPCTSDIHTVFEGAIGERHNMILGHEAVGEVVEVGSEVKDFKPGDRVVVPAITPDWRTSEVQRGYHQHSGGMLAGWKFSNVKDGVFGEFFHVNDADMNLAHLPKEIPLEAAVMIPDMMTTGFHGAELADIELGATVAVLGIGPVGLMAVAGAKLRGAGRIIAVGSRPVCVDAAKYYGATDIVNYKDGPIESQIMNLTEGKGVDAAIIAGGNADIMATAVKIVKPGGTIANVNYFGEGEVLPVPRLEWGCGMAHKTIKGGLCPGGRLRMERLIDLVFYKRVDPSKLVTHVFRGFDNIEKAFMLMKDKPKDLIKPVVILA
[3]; incubation for 30 minutes at 91° C.
  activity retained after incubation: 40%
[4]
  Km: 11 µM

B3: T. ethanolicus 39E 2° Adh: thermophilic NADP(H)-dependent secondary-alcohol dehydrogenase of Thermoanaerobacter ethanolicus 39E (SEQ ID NO: 2), adhB gene expressed in E. coli, homotetramer (protein)
chain: MKGFAMLSIGKVGWIEKEKPAPGPFDAIVRPLAVAPCTSDIHTVFEGAIGERHNMILGHEAVGEVVEVGSEVKDFKPGDRVVVPAITPDWWTSEVQRGYHQHSGGMLAGWKFSNVKDGVFGEFFHVNDADMNLAHLPKEIPLEAAVMIPDMMTTGFHGAELADIELGATVAVLGIGPVGLMAVAGAKLRGAGRIIAVGSRPVCVDAAKYYGATDIVNYKDGPIESQIMNLTEGKGVDAAIIAGGNADIMATAVKIVKPGGTIANVNYFGEGEVLPVPRLEWGCGMAHKTIKGGLCPGGRLRMERLIDLVFYKPVDPSKLVTHVFQGFDNIEKAFMLMKDKPKDLIKPVVILA
[5]
  thermostability and thermophilicity compared with other 2° Adhs: more thermostable and thermophilic
[5]; at 90° C., recombinant enzyme
  half-life: 1.7 h
[5]; incubated at 90° C.
  time for which detectable activity was retained: retained detectable activity for more than one hour
[5]; incubation for more than one hour at 90° C.
  activity retained after incubation: 100%
[6]
  difference between activation energies above and below the discontinuity (Δ), ethanol oxidation relative to propan-2-ol oxidation: at least 3 fold
[6]; before DTNB modification
  initial activity: 54±3.0 U mg^-1
[6]; ethanol oxidation, enzyme incubated at 55° C. prior to assay (FIG. 2B)
  Arrhenius plot form: distinct discontinuity
[6]; ethanol oxidation
  Arrhenius plot discontinuity temperature: ~ 46 °C
[6]; propan-2-ol oxidation, recombinant enzyme (FIG. 2A)
  temperature range of activity: detected below 25 °C and increased to beyond 90 °C
[6]; propan-2-ol oxidation, enzyme incubated at 55° C. prior to assay
  Arrhenius plot form: linear from 25 °C to 90 °C
[6]; propan-2-ol oxidation
  Arrhenius plot discontinuity temperature: ~ 55 °C
